Measurements reported in BindingDB's records for PubMed 10869375 (R. W. Johnson Pharmaceutical Research Institute, 2000).
Where “and” joins values, the source holds several entries; their conditions need not be identical. Equal entries are not always repeated.

Experiments:
[1] = target: Histamine H3 receptor (Homo sapiens, UniProt Q9Y5N1)
[2] = target: Hrh3 protein (Rattus norvegicus, UniProt Q5PPG3)
Chain of Hrh3 protein (Q5PPG3 whole entry): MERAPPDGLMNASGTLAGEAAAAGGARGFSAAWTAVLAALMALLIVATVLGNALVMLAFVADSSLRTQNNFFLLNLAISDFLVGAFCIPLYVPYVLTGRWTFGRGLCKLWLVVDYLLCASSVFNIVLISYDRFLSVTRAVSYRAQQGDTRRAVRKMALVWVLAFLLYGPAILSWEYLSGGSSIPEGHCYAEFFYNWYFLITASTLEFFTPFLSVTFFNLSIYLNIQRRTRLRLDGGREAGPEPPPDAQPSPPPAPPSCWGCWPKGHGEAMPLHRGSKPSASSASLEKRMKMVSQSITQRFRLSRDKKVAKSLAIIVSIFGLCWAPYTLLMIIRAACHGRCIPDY

Chain of Histamine H3 receptor (Q9Y5N1 whole entry): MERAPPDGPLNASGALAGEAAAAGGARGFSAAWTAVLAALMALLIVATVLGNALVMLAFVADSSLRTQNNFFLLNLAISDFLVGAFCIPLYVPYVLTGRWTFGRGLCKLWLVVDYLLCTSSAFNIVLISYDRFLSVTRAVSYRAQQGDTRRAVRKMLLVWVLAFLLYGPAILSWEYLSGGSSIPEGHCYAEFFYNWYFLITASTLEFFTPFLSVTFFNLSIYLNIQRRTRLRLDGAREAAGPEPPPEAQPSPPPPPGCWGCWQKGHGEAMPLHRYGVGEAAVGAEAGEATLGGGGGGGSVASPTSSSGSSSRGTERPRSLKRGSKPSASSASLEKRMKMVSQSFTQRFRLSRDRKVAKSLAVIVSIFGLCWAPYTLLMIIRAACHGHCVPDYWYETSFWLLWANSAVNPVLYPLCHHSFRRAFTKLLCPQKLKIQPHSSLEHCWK

Row | Ki [1] | Compound | Ki [2]
1 | 0.6 nM | N=C(N)SCCc1cnc[nH]1 [2-(3H-imidazol-4-yl)ethylsulfanylmethanimidamide] | 0.2 nM
2 | – | S=C(NC1CCCCC1)N1CCC(c2cnc[nH]2)CC1 | 10.2 nM and 4.2 nM
3 | – | NCCc1c[nH]cn1 [[3H]histamine] | 12 nM and 13.2 nM
4 | 1.6 nM | c1nc(CC2CCNCC2)c[nH]1 [4-(1H-imidazol-4-ylmethyl)piperidine] | 0.5 nM and 1.4 nM
5 | – | CN1CCN(C2=c3ccccc3=Nc3ccc(Cl)cc3N2)CC1 [6-chloro-10-(4-methylpiperazin-1-yl)-2,9-diazatricyclo[9.4.0.0^{3,8}]pentadeca-1,3(8),4,6,10,12,14-heptaene] | 3000 nM and 1750 nM

Row | Compound | Ki [1] | Ki [2]
6 | CNCCc1c[nH]cn1 [N(alpha)-Methylhistamine] | 2.4 nM | 1.2 nM and 1.5 nM
